Assay results: the supplement of paper PMC11208160

Test: recombinant UMI read abundance after kanamycin selection (control-corrected) (log10(CPM+1)); higher = more efficient recombination; extreme values may be limits of the assay; sequences stand for … in AGTGCAGAGAAAATCGGCCAGTTTTCTCTGCCTGCAGTCCGCATGCCGTGGGACCCCTTGGGTTCTAACCTGTTGCCTAGATTTATGCAGCGGACTGCCTTTCTCCCAAAGTGATAAACCGG…AGGTTGGTTTCACT; site = the 11-nt donor
Method in brief: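 Values, expressed as log10(CPM+1), derive from recombinant UMI counts converted to CPM, averaged across replicates and scaled by control-derived factors. Plating was with IPTG (0.07 mM) plus kanamycin or unselected, two replicates each. The screen pooled donor and donor-binding-loop pairs for the IS621 bridge recombinase in Escherichia coli.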
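Note: IS621 bridge recombinase in Escherichia coli cells against a fixed T5 target plasmid.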

Q: For “TACTTAACATGGACCGGTTTTCCCGGTAATCCGTATTTGCT (site TACTTGACTAG)”, which “recombinant UMI read abundance (log10)” value is on record?
A: 0.00699

Q: With “TACTTAACATGGACCGGTTTTCCCGGTAATCCGTATTTGCT (site TACTTTACTAG)” as the sequence, how does the “recombinant UMI read abundance (log10)” value read?
A: 0

Q: Which “recombinant UMI read abundance (log10)” value does the source give for “TACTTCACATGGACCGGTTTTCCCGGTAATCCGTATTTGCT (site TACTTAACTAG)” here?
A: 0.0118

Q: For “TACTTCACATGGACCGGTTTTCCCGGTAATCCGTATTTGCT (site TACTTCACTAG)”, which “recombinant UMI read abundance (log10)” value is on record?
A: 1.9

Q: Which “recombinant UMI read abundance (log10)” value does the source give for “TACTTCACATGGACCGGTTTTCCCGGTAATCCGTATTTGCT (site TACTTGACTAG)” here?
A: 0.0117

Q: Which “recombinant UMI read abundance (log10)” value does the source give for “TACTTCACATGGACCGGTTTTCCCGGTAATCCGTATTTGCT (site TACTTTACTAG)” here?
A: 0

Q: For “TACTTGACATGGACCGGTTTTCCCGGTAATCCGTATTTGGT (site TACTTGACTAA)”, which “recombinant UMI read abundance (log10)” value is on record?
A: 0.109

Q: For “TACTTGACATGGACCGGTTTTCCCGGTAATCCGTATTTGGT (site TACTTGACTAC)”, which “recombinant UMI read abundance (log10)” value is on record?
A: 0.209

Q: Which “recombinant UMI read abundance (log10)” value does the source give for “TACTTGACATGGACCGGTTTTCCCGGTAATCCGTATTTGGT (site TACTTGACTAG)” here?
A: 0

Q: For “TACTTGACATGGACCGGTTTTCCCGGTAATCCGTATTTGGT (site TACTTGACTAT)”, which “recombinant UMI read abundance (log10)” value is on record?
A: 0.179

Q: Which “recombinant UMI read abundance (log10)” value does the source give for “TAGAAAACATGGACCGGTTTTCCCGGTAATCCGTATTTGGA (site TAGAAAACTTC)” here?
A: 0.76

Q: For “TAGAACACATGGACCGGTTTTCCCGGTAATCCGTATTTGCA (site TAGAAAACTTG)”, which “recombinant UMI read abundance (log10)” value is on record?
A: 0

Q: Which “recombinant UMI read abundance (log10)” value does the source give for “TAGAACACATGGACCGGTTTTCCCGGTAATCCGTATTTGCA (site TAGAACACTTG)” here?
A: 2.41

Q: For “TAGAACACATGGACCGGTTTTCCCGGTAATCCGTATTTGCA (site TAGAAGACTTG)”, which “recombinant UMI read abundance (log10)” value is on record?
A: 0.271

Q: Which “recombinant UMI read abundance (log10)” value does the source give for “TAGAACACATGGACCGGTTTTCCCGGTAATCCGTATTTGCA (site TAGAATACTTG)” here?
A: 1.87

Q: With “TAGAATACATGGACCGGTTTTCCCGGTAATCCGTATTTGAA (site TAGAATACTTA)” as the sequence, how does the “recombinant UMI read abundance (log10)” value read?
A: 0.0126

Q: Which “recombinant UMI read abundance (log10)” value does the source give for “TAGAATACATGGACCGGTTTTCCCGGTAATCCGTATTTGAA (site TAGAATACTTC)” here?
A: 0.0116

Q: For “TAGAATACATGGACCGGTTTTCCCGGTAATCCGTATTTGAA (site TAGAATACTTG)”, which “recombinant UMI read abundance (log10)” value is on record?
A: 0

Q: For “TAGAATACATGGACCGGTTTTCCCGGTAATCCGTATTTGAA (site TAGAATACTTT)”, which “recombinant UMI read abundance (log10)” value is on record?
A: 0.686

Q: Which “recombinant UMI read abundance (log10)” value does the source give for “TAGAATACATGGACCGGTTTTCCCGGTAATCCGTATTTGCC (site TAGAATACTAG)” here?
A: 0

Q: Which “recombinant UMI read abundance (log10)” value does the source give for “TAGAATACATGGACCGGTTTTCCCGGTAATCCGTATTTGCC (site TAGAATACTCG)” here?
A: 0

Q: With “TAGAATACATGGACCGGTTTTCCCGGTAATCCGTATTTGCC (site TAGAATACTGG)” as the sequence, how does the “recombinant UMI read abundance (log10)” value read?
A: 0

Q: With “TAGAATACATGGACCGGTTTTCCCGGTAATCCGTATTTGCC (site TAGAATACTTG)” as the sequence, how does the “recombinant UMI read abundance (log10)” value read?
A: 0

Q: Which “recombinant UMI read abundance (log10)” value does the source give for “TAGAATACATGGACCGGTTTTCCCGGTAATCCGTATTTGCT (site TAGAATACTAG)” here?
A: 1.3

Q: For “TAGAATACATGGACCGGTTTTCCCGGTAATCCGTATTTGCT (site TAGAATACTCG)”, which “recombinant UMI read abundance (log10)” value is on record?
A: 0.00353

Q: Which “recombinant UMI read abundance (log10)” value does the source give for “TAGAATACATGGACCGGTTTTCCCGGTAATCCGTATTTGCT (site TAGAATACTGG)” here?
A: 0

Q: With “TAGAATACATGGACCGGTTTTCCCGGTAATCCGTATTTGCT (site TAGAATACTTG)” as the sequence, how does the “recombinant UMI read abundance (log10)” value read?
A: 0.00456

Q: With “TAGAATCCATGGACCGGTTTTCCCGGTAATCCGTATTTGCA (site TAGAATACTTG)” as the sequence, how does the “recombinant UMI read abundance (log10)” value read?
A: 0

Q: With “TAGAATCCATGGACCGGTTTTCCCGGTAATCCGTATTTGCA (site TAGAATCCTTG)” as the sequence, how does the “recombinant UMI read abundance (log10)” value read?
A: 1.16

Q: Which “recombinant UMI read abundance (log10)” value does the source give for “TAGAATCCATGGACCGGTTTTCCCGGTAATCCGTATTTGCA (site TAGAATGCTTG)” here?
A: 0

Q: With “TAGAATCCATGGACCGGTTTTCCCGGTAATCCGTATTTGCA (site TAGAATTCTTG)” as the sequence, how does the “recombinant UMI read abundance (log10)” value read?
A: 0

Q: For “TAGAATGCATGGACCGGTTTTCCCGGTAATCCGTATTTGCA (site TAGAATACTTG)”, which “recombinant UMI read abundance (log10)” value is on record?
A: 0.258

Q: With “TAGAATGCATGGACCGGTTTTCCCGGTAATCCGTATTTGCA (site TAGAATCCTTG)” as the sequence, how does the “recombinant UMI read abundance (log10)” value read?
A: 0.762

Q: Which “recombinant UMI read abundance (log10)” value does the source give for “TAGAATGCATGGACCGGTTTTCCCGGTAATCCGTATTTGCA (site TAGAATGCTTG)” here?
A: 2.71

Q: For “TAGAATGCATGGACCGGTTTTCCCGGTAATCCGTATTTGCA (site TAGAATTCTTG)”, which “recombinant UMI read abundance (log10)” value is on record?
A: 0.905

Q: For “TAGAATTCATGGACCGGTTTTCCCGGTAATCCGTATTTGCA (site TAGAATACTTG)”, which “recombinant UMI read abundance (log10)” value is on record?
A: 0.907

Q: For “TAGAATTCATGGACCGGTTTTCCCGGTAATCCGTATTTGCA (site TAGAATCCTTG)”, which “recombinant UMI read abundance (log10)” value is on record?
A: 0

Q: Which “recombinant UMI read abundance (log10)” value does the source give for “TAGAATTCATGGACCGGTTTTCCCGGTAATCCGTATTTGCA (site TAGAATGCTTG)” here?
A: 0

Q: With “TAGAATTCATGGACCGGTTTTCCCGGTAATCCGTATTTGCA (site TAGAATTCTTG)” as the sequence, how does the “recombinant UMI read abundance (log10)” value read?
A: 1.53

Q: For “TAGACGCCATGGACCGGTTTTCCCGGTAATCCGTATTTGTG (site TAGACGCCTCA)”, which “recombinant UMI read abundance (log10)” value is on record?
A: 0.00987

Q: With “TAGCAGACATGGACCGGTTTTCCCGGTAATCCGTATTTGGT (site TAGCAGACTAC)” as the sequence, how does the “recombinant UMI read abundance (log10)” value read?
A: 0.868

Q: Which “recombinant UMI read abundance (log10)” value does the source give for “TAGCAGGCATGGACCGGTTTTCCCGGTAATCCGTATTTGCT (site TAGCAGGCTAG)” here?
A: 1.19

Q: With “TAGCCTACATGGACCGGTTTTCCCGGTAATCCGTATTTGGT (site TAGCCTACTAC)” as the sequence, how does the “recombinant UMI read abundance (log10)” value read?
A: 0.00532

Q: Which “recombinant UMI read abundance (log10)” value does the source give for “TAGCCTACATGGACCGGTTTTCCCGGTAATCCGTATTTGGT (site TAGCCTCCTAC)” here?
A: 0.0181

Q: With “TAGCCTACATGGACCGGTTTTCCCGGTAATCCGTATTTGGT (site TAGCCTGCTAC)” as the sequence, how does the “recombinant UMI read abundance (log10)” value read?
A: 0.0107

Q: For “TAGCCTACATGGACCGGTTTTCCCGGTAATCCGTATTTGGT (site TAGCCTTCTAC)”, which “recombinant UMI read abundance (log10)” value is on record?
A: 0.0222

Q: Which “recombinant UMI read abundance (log10)” value does the source give for “TAGCCTTCATGGACCGGTTTTCCCGGTAATCCGTATTTGGC (site TAGCCTTCTAC)” here?
A: 0.00487

Q: Which “recombinant UMI read abundance (log10)” value does the source give for “TAGCCTTCATGGACCGGTTTTCCCGGTAATCCGTATTTGGC (site TAGCCTTCTCC)” here?
A: 0.0163

Q: For “TAGCCTTCATGGACCGGTTTTCCCGGTAATCCGTATTTGGC (site TAGCCTTCTGC)”, which “recombinant UMI read abundance (log10)” value is on record?
A: 0

Q: Which “recombinant UMI read abundance (log10)” value does the source give for “TAGCCTTCATGGACCGGTTTTCCCGGTAATCCGTATTTGGC (site TAGCCTTCTTC)” here?
A: 0.0129

Q: For “TAGCCTTCATGGACCGGTTTTCCCGGTAATCCGTATTTGTT (site TAGCCTTCTAA)”, which “recombinant UMI read abundance (log10)” value is on record?
A: 1.08

Q: With “TAGCCTTCATGGACCGGTTTTCCCGGTAATCCGTATTTGTT (site TAGCCTTCTAC)” as the sequence, how does the “recombinant UMI read abundance (log10)” value read?
A: 0.0119

Q: With “TAGCCTTCATGGACCGGTTTTCCCGGTAATCCGTATTTGTT (site TAGCCTTCTAG)” as the sequence, how does the “recombinant UMI read abundance (log10)” value read?
A: 0.0127

Q: With “TAGCCTTCATGGACCGGTTTTCCCGGTAATCCGTATTTGTT (site TAGCCTTCTAT)” as the sequence, how does the “recombinant UMI read abundance (log10)” value read?
A: 0.00427

Q: For “TAGCGCGCATGGACCGGTTTTCCCGGTAATCCGTATTTGAC (site TAGCGCGCTGT)”, which “recombinant UMI read abundance (log10)” value is on record?
A: 2.03

Q: For “TAGCGGTCATGGACCGGTTTTCCCGGTAATCCGTATTTGTT (site TAGCGGTCTAA)”, which “recombinant UMI read abundance (log10)” value is on record?
A: 1.27

Q: Which “recombinant UMI read abundance (log10)” value does the source give for “TAGCTAGCATGGACCGGTTTTCCCGGTAATCCGTATTTGAA (site AAGCTAGCTTT)” here?
A: 0.0472
